Earlier results on two compounds are cited in publication PMC7935732 (Targeted Oncology, 2021).

One data set deals with CDK 4. As to conditions: compared with abemaciclib; cited from earlier work.
In another data set the test system is CDK 6. To be noted: compared with abemaciclib; cited from earlier work.

Molecules are shown by their SMILES.

For the compound `CCN1CCN(Cc2ccc(Nc3ncc(F)c(-c4cc(F)c5nc(CO)n(C(C)C)c5c4)n3)nc2)CC1` [M20], the “Inhibitory potency for CDK 4” value in the data set with CDK 4 is “comparable inhibitory potencies”. Also, the “Inhibitory potency for CDK 6” value with CDK 6 is given as “comparable inhibitory potencies”.

In the case of `Cc1nc2c(F)cc(-c3nc(Nc4ccc(CN5CCNCC5)cn4)ncc3F)cc2n1C(C)C` [M2], in the data set on CDK 4, the “Inhibitory potency for CDK 4” value was “comparable inhibitory potencies”. Also, the “Inhibitory potency for CDK 6” value with CDK 6 is recorded as “comparable inhibitory potencies”.
